From patent US11214572B2, “7-site substituted pyrrole triazine compounds or pharmaceutically acceptable salts thereof, and preparation method thereof and uses thereof” (SHANGHAI INSTITUTE OF MATERIA MEDICA, CHINESE ACADEMY OF …, priority 2017, dated 2022)
pIC50: −log10 of the molar value. Several values for one entry are separate records, joined by “and”; a condition that tells them apart may be missing. Identical values can stand only once. Like-named read-outs stand apart in the source and are kept apart here.

Experiments:
PI3Kγ = PI3Kγ (Homo sapiens, UniProt P48736); experiment: PI3K kinase activity, γ isoform; format: biochemical;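 also: kinase reaction run in 384-well plates, with inhibition normalised between the 0% and 100% reference reactions. IC50 derived from a ten-point, fourfold serial dilution series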
Description: (§6) Concentration setting for preliminary screening: the compounds to be tested were dissolved in DMSO (dimethyl sulfoxide) to 100 μM or 10 μM as storage solutions; for each one, 2 μL was taken to be added to 48 μL of 1× Reaction Buffer to obtain a 4 μM or 400 nM compound solution containing 4% DMSO. After well mixing, the mixture was diluted with 4% DMSO in 1× Reaction Buffer to obtain a 4 μM or 400 nM compound solution. 5 μL of each diluted solution was taken to be added to a 384-well plate, so that the final concentration of the compound in the final 20 μL of the kinase reaction system was 1 μM and 100 nM or 100 nM and 20 nM, respectively, and containing 1% DMSO.
(§7) The compounds to be tested were dissolved in DMSO to 1 mM or 10 mM as working solutions, 1 μL of each working solution was taken to be added to 24 μl of 1× Kinase Buffer A to obtain a 40 μM or 400 μM compound solution containing 4% DMSO. The compound solution was diluted by 4× gradient in sequence, 10 dilution concentrations.
(§8) Calculation of the Inhibition Rate • The inhibitory rate was calculated by the following formula: Inhibitory rate=(ERsample−ER0%)/(ER100%−ER0%)×100%

PI3Kδ = PI3Kδ (Homo sapiens, UniProt O00329); experiment: PI3K kinase activity, δ isoform
Description: as §6, §7, §8

[1] = Preliminary pharmacokinetic test, intragastric administration; format: in vivo, SD rats; conditions: rats; for half-life: read-out: T½ (converted)
Description: (§1) 1. 14 healthy SD rats, male, weigh 200-220 g, were taken to be randomly divided into 4 groups, 3-4 in each group, and were administered the tested compound P-17 and compound CYH33 (compared with compound P-17, missing a methyl group on 7-position) via intragastric administration (10 mg/kg) and intravenous injection (5 mg/kg) respectively, the specific arrangements are shown in the following table 3:
(§2) The rats were fasted for 12 h before experiment, water was taken freely. The rats were fed 2 h after dosing.
Dosing via intragastric administration: 0.25 h, 0.5 h, 1.0 h, 2.0 h, 3.0 h, 4.0 h, 6.0 h, 8.0 h, and 24 h after dosing.
(§3) At the above setting time points, 0.3 ml of venous blood was taken from the retroorbital venous plexus of the rat, and placed in a heparinized test tube, centrifuged at 11,000 rpm for 5 min, then the plasma was separated, and frozen in a refrigerator at −20° C.
(§4) LC/MS/MS method was used to determine the concentration of the compounds in the plasma of rats.
(§5) The non-compartment model of Phoenix 1.3 software (Pharsight Corporation, USA) was used to calculate the pharmacokinetic parameters after dosing.

PI3Kβ = PI3Kβ (Homo sapiens, UniProt P42338); experiment: PI3K kinase activity, β isoform;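 also: kinase reaction containing 1% DMSO, read as an emission ratio, with inhibition scaled between the 0% and 100% control ratios. IC50 values come from a ten-point fourfold dilution series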
Description: as §6, §7, §8

PI3Kα = PI3Kα (Homo sapiens, UniProt P42336); experiment: PI3K kinase activity, α isoform
Description: as §6, §7, §8

[2] = Preliminary pharmacokinetic test, intravenous injection; format: in vivo, SD rats; conditions: 5 mg/kg, rats, intravenous injection 5 mg/kg, tested as monomesylate; for Vd: read-out: Vss
Description: as §1, §2
Dosing via intravenous: 5 min, 0.25 h, 0.5 h, 1.0 h, 2.0 h, 4.0 h, 6.0 h, 8.0 h, and 24 h after dosing.
as §3, §4, §5

[3] = male, SD, rat, plasma, iv, Mean
[4] = male, SD, rat, plasma, iv, individual animal

Sequence of PI3Kβ (P42338 whole entry, canonical isoform): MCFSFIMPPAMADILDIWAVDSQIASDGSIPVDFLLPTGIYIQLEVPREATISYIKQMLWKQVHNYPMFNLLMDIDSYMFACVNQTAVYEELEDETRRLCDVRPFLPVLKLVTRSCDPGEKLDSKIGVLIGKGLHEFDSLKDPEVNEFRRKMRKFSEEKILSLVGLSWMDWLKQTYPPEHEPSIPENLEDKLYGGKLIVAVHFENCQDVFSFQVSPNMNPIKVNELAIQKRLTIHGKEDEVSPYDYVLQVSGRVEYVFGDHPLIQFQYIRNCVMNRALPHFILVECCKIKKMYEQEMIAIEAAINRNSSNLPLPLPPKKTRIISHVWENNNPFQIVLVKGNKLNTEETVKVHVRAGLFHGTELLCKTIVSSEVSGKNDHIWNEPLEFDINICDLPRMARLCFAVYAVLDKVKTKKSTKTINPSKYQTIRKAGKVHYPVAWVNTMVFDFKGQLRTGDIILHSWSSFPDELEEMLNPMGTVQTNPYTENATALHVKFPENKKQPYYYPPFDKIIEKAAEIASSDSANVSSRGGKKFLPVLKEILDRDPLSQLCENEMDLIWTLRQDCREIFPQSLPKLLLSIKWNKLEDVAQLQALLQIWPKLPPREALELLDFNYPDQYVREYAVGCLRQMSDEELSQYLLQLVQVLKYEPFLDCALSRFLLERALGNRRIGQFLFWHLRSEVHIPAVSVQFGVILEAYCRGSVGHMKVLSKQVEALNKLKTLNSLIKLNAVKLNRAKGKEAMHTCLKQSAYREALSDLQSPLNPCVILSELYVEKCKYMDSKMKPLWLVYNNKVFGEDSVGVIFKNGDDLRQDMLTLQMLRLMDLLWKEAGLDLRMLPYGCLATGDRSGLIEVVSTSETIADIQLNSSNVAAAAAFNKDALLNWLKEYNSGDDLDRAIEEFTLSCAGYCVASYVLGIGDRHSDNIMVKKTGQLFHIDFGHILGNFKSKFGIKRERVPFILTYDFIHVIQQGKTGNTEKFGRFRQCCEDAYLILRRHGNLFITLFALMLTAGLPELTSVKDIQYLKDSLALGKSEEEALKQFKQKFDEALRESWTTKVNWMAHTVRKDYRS
Sequence of PI3Kβ (P27986 whole entry partner, canonical isoform): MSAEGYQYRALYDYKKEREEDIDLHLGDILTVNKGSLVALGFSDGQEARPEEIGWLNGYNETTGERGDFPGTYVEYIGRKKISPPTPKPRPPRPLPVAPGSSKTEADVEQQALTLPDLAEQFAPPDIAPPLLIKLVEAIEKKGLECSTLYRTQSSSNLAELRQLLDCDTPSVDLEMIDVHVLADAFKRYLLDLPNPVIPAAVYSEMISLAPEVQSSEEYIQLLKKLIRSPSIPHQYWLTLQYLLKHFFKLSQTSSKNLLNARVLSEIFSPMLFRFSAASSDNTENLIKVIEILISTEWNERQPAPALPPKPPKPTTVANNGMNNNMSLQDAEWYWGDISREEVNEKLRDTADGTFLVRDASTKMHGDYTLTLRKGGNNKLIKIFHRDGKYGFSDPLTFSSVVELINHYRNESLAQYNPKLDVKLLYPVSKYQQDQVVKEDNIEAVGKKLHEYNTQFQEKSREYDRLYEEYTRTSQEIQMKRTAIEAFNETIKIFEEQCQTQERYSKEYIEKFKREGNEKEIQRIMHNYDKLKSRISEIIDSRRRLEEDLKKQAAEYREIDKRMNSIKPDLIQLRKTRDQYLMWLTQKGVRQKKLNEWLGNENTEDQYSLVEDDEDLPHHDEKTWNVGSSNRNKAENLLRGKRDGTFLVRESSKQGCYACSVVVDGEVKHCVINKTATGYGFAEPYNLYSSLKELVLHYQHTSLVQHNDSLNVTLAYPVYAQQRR
Sequence of PI3Kδ (O00329 whole entry, canonical isoform): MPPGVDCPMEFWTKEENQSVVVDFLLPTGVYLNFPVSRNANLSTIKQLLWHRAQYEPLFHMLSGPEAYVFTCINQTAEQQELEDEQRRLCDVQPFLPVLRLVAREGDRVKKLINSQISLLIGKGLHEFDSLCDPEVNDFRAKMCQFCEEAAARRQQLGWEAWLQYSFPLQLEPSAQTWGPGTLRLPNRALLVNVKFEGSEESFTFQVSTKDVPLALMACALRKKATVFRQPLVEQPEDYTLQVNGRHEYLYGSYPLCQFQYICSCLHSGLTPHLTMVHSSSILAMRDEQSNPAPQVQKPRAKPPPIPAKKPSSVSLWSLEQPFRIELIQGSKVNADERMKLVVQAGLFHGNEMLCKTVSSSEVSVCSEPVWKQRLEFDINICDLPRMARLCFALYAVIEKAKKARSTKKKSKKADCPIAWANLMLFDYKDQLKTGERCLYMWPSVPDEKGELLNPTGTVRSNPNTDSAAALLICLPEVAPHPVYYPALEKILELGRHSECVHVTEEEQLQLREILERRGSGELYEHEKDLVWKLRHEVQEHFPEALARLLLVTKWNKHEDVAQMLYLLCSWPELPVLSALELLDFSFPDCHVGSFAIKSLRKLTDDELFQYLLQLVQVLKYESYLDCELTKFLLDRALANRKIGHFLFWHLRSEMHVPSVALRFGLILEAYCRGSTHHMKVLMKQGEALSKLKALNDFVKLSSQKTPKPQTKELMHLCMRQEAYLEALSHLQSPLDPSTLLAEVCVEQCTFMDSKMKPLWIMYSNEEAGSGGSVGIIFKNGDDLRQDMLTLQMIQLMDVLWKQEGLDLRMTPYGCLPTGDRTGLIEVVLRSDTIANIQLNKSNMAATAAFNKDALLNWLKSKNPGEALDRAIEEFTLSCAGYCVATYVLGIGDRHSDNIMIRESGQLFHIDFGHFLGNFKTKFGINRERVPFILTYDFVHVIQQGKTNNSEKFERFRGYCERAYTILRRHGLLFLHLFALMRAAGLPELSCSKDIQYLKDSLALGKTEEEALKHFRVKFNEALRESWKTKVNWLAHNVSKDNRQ
Sequence of PI3Kδ (P27986 whole entry partner, canonical isoform): as the sequence (P27986 whole entry partner, canonical isoform) above
Sequence of PI3Kα (P42336 whole entry, canonical isoform): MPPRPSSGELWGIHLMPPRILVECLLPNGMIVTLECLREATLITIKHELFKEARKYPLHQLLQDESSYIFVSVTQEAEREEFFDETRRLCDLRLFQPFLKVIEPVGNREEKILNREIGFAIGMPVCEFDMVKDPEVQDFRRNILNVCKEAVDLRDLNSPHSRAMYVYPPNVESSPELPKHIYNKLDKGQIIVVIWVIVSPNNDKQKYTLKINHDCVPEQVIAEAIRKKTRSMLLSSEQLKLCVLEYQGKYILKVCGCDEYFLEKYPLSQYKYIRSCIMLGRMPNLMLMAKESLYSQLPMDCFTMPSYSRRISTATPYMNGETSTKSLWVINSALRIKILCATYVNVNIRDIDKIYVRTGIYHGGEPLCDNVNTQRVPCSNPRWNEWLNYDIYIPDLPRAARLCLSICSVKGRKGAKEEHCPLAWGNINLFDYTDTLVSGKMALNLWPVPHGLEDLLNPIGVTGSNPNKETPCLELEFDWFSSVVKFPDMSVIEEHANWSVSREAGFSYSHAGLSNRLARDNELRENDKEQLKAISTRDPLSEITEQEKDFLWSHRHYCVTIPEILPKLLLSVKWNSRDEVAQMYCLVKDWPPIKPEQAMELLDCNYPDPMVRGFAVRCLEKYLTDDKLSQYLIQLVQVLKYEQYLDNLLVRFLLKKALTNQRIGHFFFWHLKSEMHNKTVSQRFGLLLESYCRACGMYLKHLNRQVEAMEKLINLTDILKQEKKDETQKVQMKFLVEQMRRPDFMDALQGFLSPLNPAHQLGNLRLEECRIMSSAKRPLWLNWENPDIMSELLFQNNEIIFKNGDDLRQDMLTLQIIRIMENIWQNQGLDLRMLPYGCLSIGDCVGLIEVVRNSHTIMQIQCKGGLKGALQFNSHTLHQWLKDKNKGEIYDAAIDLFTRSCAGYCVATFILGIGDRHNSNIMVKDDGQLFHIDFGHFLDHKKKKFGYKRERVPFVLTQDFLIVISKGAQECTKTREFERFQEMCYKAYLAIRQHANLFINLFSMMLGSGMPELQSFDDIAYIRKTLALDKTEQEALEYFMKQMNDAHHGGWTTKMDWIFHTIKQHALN
Sequence of PI3Kα (P27986 whole entry partner, canonical isoform): as the sequence (P27986 whole entry partner, canonical isoform) above
Sequence of PI3Kγ (P48736 whole entry, canonical isoform): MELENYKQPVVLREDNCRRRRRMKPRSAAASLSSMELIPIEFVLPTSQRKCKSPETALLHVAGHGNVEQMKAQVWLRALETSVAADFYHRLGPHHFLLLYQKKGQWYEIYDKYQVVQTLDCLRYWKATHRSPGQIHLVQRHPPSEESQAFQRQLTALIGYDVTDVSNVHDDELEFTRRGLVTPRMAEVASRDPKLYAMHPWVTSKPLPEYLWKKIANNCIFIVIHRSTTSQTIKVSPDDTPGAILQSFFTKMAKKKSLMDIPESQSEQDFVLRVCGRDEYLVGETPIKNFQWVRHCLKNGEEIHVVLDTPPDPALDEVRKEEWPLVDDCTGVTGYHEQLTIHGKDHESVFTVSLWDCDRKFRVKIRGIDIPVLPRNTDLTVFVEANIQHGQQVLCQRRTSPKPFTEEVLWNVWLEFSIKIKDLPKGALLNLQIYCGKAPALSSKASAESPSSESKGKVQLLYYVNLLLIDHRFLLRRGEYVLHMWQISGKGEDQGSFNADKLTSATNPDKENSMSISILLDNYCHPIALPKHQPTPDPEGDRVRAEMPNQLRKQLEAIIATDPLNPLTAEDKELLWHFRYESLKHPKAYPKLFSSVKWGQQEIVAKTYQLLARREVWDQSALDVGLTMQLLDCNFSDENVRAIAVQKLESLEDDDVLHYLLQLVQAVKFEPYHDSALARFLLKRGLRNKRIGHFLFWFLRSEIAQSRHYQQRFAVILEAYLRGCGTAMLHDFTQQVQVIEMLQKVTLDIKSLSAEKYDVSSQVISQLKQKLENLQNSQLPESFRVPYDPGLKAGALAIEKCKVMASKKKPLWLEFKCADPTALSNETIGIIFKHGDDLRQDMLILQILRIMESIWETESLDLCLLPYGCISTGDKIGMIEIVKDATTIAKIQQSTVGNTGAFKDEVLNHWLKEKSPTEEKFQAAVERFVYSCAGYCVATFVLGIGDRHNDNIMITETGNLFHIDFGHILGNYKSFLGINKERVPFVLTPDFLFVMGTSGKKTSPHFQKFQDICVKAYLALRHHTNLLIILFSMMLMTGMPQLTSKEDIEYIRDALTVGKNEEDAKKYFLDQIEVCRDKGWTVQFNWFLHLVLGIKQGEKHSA

Q: Which IC50 (PI3Kγ) does the source give for `COC(=O)Nc1cc(C(F)(F)F)c(-c2nc(N3CCOCC3)c3cc(CN4CCN(S(C)(=O)=O)CC4)c(C)n3n2)cn1` [Compound P-17] here?
A: 290 nM

Q: What about the inhibition at 0.1 µM (PI3Kγ; compound 100 nM, read-out: IH (%) @ 100 nM, γ) of the same molecule?
A: 47%

Q: What about the pIC50 (PI3Kδ) of the same molecule?
A: 7.12

Q: And the inhibition at 0.02 µM (PI3Kδ; read-out: IH (%) @ 20 nM, δ)?
A: 64.1%

Q: And the half-life ([1]; male, SD, rat, plasma, oral, 10 mg/kg, 10 mg/kg, Mean, monomesylate)?
A: 2.77 h

Q: And the half-life ([1]; male, SD, rat, plasma, oral, 10 mg/kg, 10 mg/kg, individual animal, monomesylate)?
A: 3.08 h

Q: And the AUC(0-inf) ([1]; male, SD, rat, plasma, oral, 10 mg/kg, Mean, monomesylate)?
A: 6120 ng·h/mL

Q: And the bioavailability ([1]; male, SD, rat, plasma, oral, 10 mg/kg versus 5 mg/kg intravenous, monomesylate, read-out: F (absolute bioavailability))?
A: 95.8%

Q: And the “steady-state distribution volume Vss, average residence time MRT, half-life T½ and absolute bioavailability F compared with CYH33 (in words)” value ([1]; monomesylates)?
A: improved

Q: What about the pIC50 (PI3Kβ) of the same molecule?
A: 6.04

Q: And the inhibition at 0.1 µM (PI3Kβ; read-out: IH (%) @ 100 nM, β)?
A: 16%

Q: What about the pIC50 (PI3Kα) of the same molecule?
A: 7.12

Q: And the inhibition at 0.02 µM (PI3Kα; read-out: IH (%) @ 20 nM, α)?
A: 60.7%

Q: And the AUC(0-inf) [2, 3]?
A: 3240 ng·h/mL

Q: And the AUC(0-t) [2, 3]?
A: 2990 ng·h/mL

Q: What about the clearance [2, 3] of the same molecule?
A: 26.8 mL/min/kg

Q: And the half-life [2, 3]?
A: 2.1 h

Q: And the MRT ([2]; male, SD, rat, plasma, iv, Mean, read-out: MRT)?
A: 2.71 h

Q: And the Vd [2, 3]?
A: 4.17 L/kg

Q: And the AUC(0-inf) [2, 4]?
A: 4190 ng·h/mL

Q: And the AUC(0-t) [2, 4]?
A: 3700 ng·h/mL

Q: What about the clearance [2, 4] of the same molecule?
A: 19.8 mL/min/kg

Q: What about the half-life [2, 4] of the same molecule?
A: 2.61 h

Q: And the MRT ([2]; male, SD, rat, plasma, iv, individual animal, read-out: MRT)?
A: 3.53 h

Q: And the Vd [2, 4]?
A: 4.21 L/kg

Q: What about the “AUC 0 − t” value ([2]; individual animal) of the same molecule?
A: 2564 ng·h/mL and 2711 ng·h/mL

Q: And the “AUC 0 − ∞” value ([2]; individual animal)?
A: 2672 ng·h/mL and 2845 ng·h/mL

Q: And the Cl ([2]; individual animal)?
A: 31.2 mL/min/kg and 29.3 mL/min/kg

Q: What about the MRT ([2]; individual animal) of the same molecule?
A: 2.13 h and 2.46 h

Q: And the T1/2 ([2]; individual animal)?
A: 1.88 h and 1.82 h

Q: What about the Vss ([2]; individual animal) of the same molecule?
A: 3.98 L/kg and 4.33 L/kg
